Measurements published in the supplement of paper PMC10307832.

Legend:
Assay in all cases: relative viability (nuclei count vs DMSO), 5 days (fraction); higher = more cells survive
[1] = system: NCI-H1734
In short: (§1)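 Lung cancer cell lines were pin-tool dosed in 1536-well plates on the day after seeding, with either a lone drug or a fixed anchor-drug dose plus five library-drug doses (not always all listed) in √10 steps. Nuclei were counted on 4× images after 5 days. Relative viability is the ratio of treated-well to vehicle-well nuclei counts, with each value a median of duplicate plates.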

[2] = system: LK-2
In short: as §1

[3] = system: UMC-11
In short: as §1

[4] = system: NCI-H2009
In short: as §1

[5] = system: NCI-H1623
In short: as §1

[6] = system: NCI-H1650
In short: as §1

[7] = system: A549
In short: as §1

[8] = system: CAL-12T
In short: as §1

[9] = system: A-427
In short: as §1

## Nc1ccn([C@@H]2O[C@H](CO)[C@@H](O)[C@@H]2O)c(=O)n1 [Cytarabine] + N=C(N)NC(=N)NCCc1ccccc1 [Phenformin] (partner 250 µM)
[1]; first compound 0.005 µM
  relative viability: 0.322
[1]; first compound 0.01581 µM
  relative viability: 0.219
[1]; first compound 0.05 µM
  relative viability: 0.191
[1]; first compound 0.1581 µM
  relative viability: 0.155
[1]; first compound 0.5 µM
  relative viability: 0.155
[2]; first compound 0.005 µM
  relative viability: 0.357
[2]; first compound 0.01581 µM
  relative viability: 0.247
[2]; first compound 0.05 µM
  relative viability: 0.288
[2]; first compound 0.1581 µM
  relative viability: 0.149
[2]; first compound 0.5 µM
  relative viability: 0.196
[3]; first compound 0.005 µM
  relative viability: 0.245
[3]; first compound 0.01581 µM
  relative viability: 0.232
[3]; first compound 0.05 µM
  relative viability: 0.205
[3]; first compound 0.1581 µM
  relative viability: 0.195
[3]; first compound 0.5 µM
  relative viability: 0.159
[4]; first compound 0.005 µM
  relative viability: 0.42
[4]; first compound 0.01581 µM
  relative viability: 0.503
[4]; first compound 0.05 µM
  relative viability: 0.455
[4]; first compound 0.1581 µM
  relative viability: 0.386
[4]; first compound 0.5 µM
  relative viability: 0.268
[5]; first compound 0.005 µM
  relative viability: 0.432
[5]; first compound 0.01581 µM
  relative viability: 0.396
[5]; first compound 0.05 µM
  relative viability: 0.357
[5]; first compound 0.1581 µM
  relative viability: 0.402
[5]; first compound 0.5 µM
  relative viability: 0.431
[6]; first compound 0.005 µM
  relative viability: 0.386
[6]; first compound 0.01581 µM
  relative viability: 0.263
[6]; first compound 0.05 µM
  relative viability: 0.252
[6]; first compound 0.1581 µM
  relative viability: 0.177
[6]; first compound 0.5 µM
  relative viability: 0.125
[7]; first compound 0.005 µM
  relative viability: 0.104
[7]; first compound 0.01581 µM
  relative viability: 0.127
[7]; first compound 0.05 µM
  relative viability: 0.106
[7]; first compound 0.1581 µM
  relative viability: 0.0512
[7]; first compound 0.5 µM
  relative viability: 0.0301
[8]; first compound 0.005 µM
  relative viability: 0.524
[8]; first compound 0.01581 µM
  relative viability: 0.489
[8]; first compound 0.05 µM
  relative viability: 0.638
[8]; first compound 0.1581 µM
  relative viability: 0.283
[8]; first compound 0.5 µM
  relative viability: 0.18
[9]; first compound 0.005 µM
  relative viability: 0.255
[9]; first compound 0.01581 µM
  relative viability: 0.188
[9]; first compound 0.05 µM
  relative viability: 0.207
[9]; first compound 0.5 µM
  relative viability: 0.153

## CC(=O)O[C@@]12CO[C@@H]1C[C@H](O)[C@@]1(C)C(=O)[C@H](O)C3=C(C)[C@@H](OC(=O)[C@H](O)[C@@H](NC(=O)OC(C)(C)C)c4ccccc4)C[C@@](O)([C@@H](OC(=O)c4ccccc4)[C@H]21)C3(C)C [Docetaxel] + CCNC(=O)c1noc(-c2cc(C(C)C)c(O)cc2O)c1-c1ccc(CN2CCOCC2)cc1 [Luminespib] (partner 0.01 µM)
[1]; first compound 0.0002 µM
  relative viability: 0.213
[1]; first compound 0.000632 µM
  relative viability: 0.197
[1]; first compound 0.002 µM
  relative viability: 0.175
[1]; first compound 0.006325 µM
  relative viability: 0.161
[1]; first compound 0.02 µM
  relative viability: 0.14
[2]; first compound 0.0002 µM
  relative viability: 0.193
[2]; first compound 0.000632 µM
  relative viability: 0.177
[2]; first compound 0.002 µM
  relative viability: 0.157
[2]; first compound 0.006325 µM
  relative viability: 0.164
[2]; first compound 0.02 µM
  relative viability: 0.168
[3]; first compound 0.0002 µM
  relative viability: 1.02
[3]; first compound 0.000632 µM
  relative viability: 0.917
[3]; first compound 0.002 µM
  relative viability: 0.406
[3]; first compound 0.006325 µM
  relative viability: 0.271
[3]; first compound 0.02 µM
  relative viability: 0.183
[4]; first compound 0.0002 µM
  relative viability: 0.979
[4]; first compound 0.000632 µM
  relative viability: 1.09
[4]; first compound 0.002 µM
  relative viability: 0.956
[4]; first compound 0.006325 µM
  relative viability: 0.78
[4]; first compound 0.02 µM
  relative viability: 0.261
[5]; first compound 0.0002 µM
  relative viability: 0.543
[5]; first compound 0.000632 µM
  relative viability: 0.405
[5]; first compound 0.002 µM
  relative viability: 0.455
[5]; first compound 0.006325 µM
  relative viability: 0.353
[5]; first compound 0.02 µM
  relative viability: 0.281
[6]; first compound 0.0002 µM
  relative viability: 0.22
[6]; first compound 0.000632 µM
  relative viability: 0.212
[6]; first compound 0.006325 µM
  relative viability: 0.199
[6]; first compound 0.02 µM
  relative viability: 0.193
[8]; first compound 0.0002 µM
  relative viability: 0.413
[8]; first compound 0.000632 µM
  relative viability: 0.252
[8]; first compound 0.002 µM
  relative viability: 0.199
[8]; first compound 0.006325 µM
  relative viability: 0.168
[8]; first compound 0.02 µM
  relative viability: 0.136
[9]; first compound 0.0002 µM
  relative viability: 0.883
[9]; first compound 0.000632 µM
  relative viability: 0.832
[9]; first compound 0.002 µM
  relative viability: 0.507
[9]; first compound 0.006325 µM
  relative viability: 0.238
[9]; first compound 0.02 µM
  relative viability: 0.161
